Experiments:
[1] = system: GFPCre:IRES:HSVTK expressing clones (BW5147 subclones); experiment: Culture of GFPCre:IRES:HSVTK expressing BW clones in ganciclovir (HSVTK activity assessment); assay type: cell-based, murine; settings: 5 μM ganciclovir
Description: 2.1 GFPCre:IRES:HSVTK cassette function: A retroviral vector was generated with the cDNA encoding the GFPCre fusion protein followed by an […] ribosomal entry site (IRES) and the cDNA encoding HSVTK (FIG. 2). In addition, the upstream activating sequence (UAS) which binds the Gal4 transcriptional trans-activator was cloned upstream of the GFPCre cDNA (FIG. 2). The BW5147 thymoma was infected with this retrovirus, and subclones (BW-1, 5, 41 and 50) expressing different levels of the GFPCre fusion protein were identified by flow cytometry (FIG. 3).
(§1) BW subclones with varying levels of GFPCre expression were tested for functional Cre recombinase and HSVTK activity. The pCT.1 (pCT.1^AMP) vector was transiently transfected into each cell line followed by recovery and analysis of plasmid configuration (pCT.1^AMP vs. pCT.1^CAT). Maximal conversion would result in equimolar ratios of pCT.1^AMP and pCT.1^CAT due to the reversible nature of the reaction. […] The kinetics of conversion in cell lines expressing different levels of GFPCre was evaluated. To assess HSVTK activity, all of the cell lines were cultured in 5 μM ganciclovir. […] No spontaneous revertants were isolated, which, given the culture conditions, puts the spontaneous reversion rate at <10^−8.

[2] = system: parent BW cell line (BW5147 murine thymoma); experiment: Culture of parent BW cell line in ganciclovir (HSVTK activity assessment); assay type: cell-based; settings: 5 μM ganciclovir; parent BW cell line without HSVTK
Experimental: as §1

## Nc1nc(O)c2ncn(COC(CO)CO)c2n1 [ganciclovir]
[1]
  growth/survival in media with ganciclovir: all died
[2]
  growth in media with ganciclovir: normal growth

From patent US20040229230A1, “Method for gene isolation by Cre-trap cloning” (priority 2002, published 2004)
